Like-named read-outs stand apart in the source and are kept apart here. Square brackets hold non-standard residues; d marks the D form. Peptide text beside a SMILES is read from it. pY = N[C@@H](Cc1ccc(OP(=O)(O)O)cc1)C(=O)O; pS = N[C@@H](COP(=O)(O)O)C(=O)O; Cha = N[C@@H](CC1CCCCC1)C(=O)O; Tle = CC(C)(C)[C@H](N)C(=O)O
Assays:
[1] = target: T1, PEPT1 (Homo sapiens, UniProt P46059); assay: Competition assay with transgenic yeast cells, displacement of radiolabeled tracer dipeptide, PEPT1; assay type: binding, mammalian
T1 construct: expressed in transfected cells; host or cells: transgenic yeast cells
T1 sequence (P46059 1-708): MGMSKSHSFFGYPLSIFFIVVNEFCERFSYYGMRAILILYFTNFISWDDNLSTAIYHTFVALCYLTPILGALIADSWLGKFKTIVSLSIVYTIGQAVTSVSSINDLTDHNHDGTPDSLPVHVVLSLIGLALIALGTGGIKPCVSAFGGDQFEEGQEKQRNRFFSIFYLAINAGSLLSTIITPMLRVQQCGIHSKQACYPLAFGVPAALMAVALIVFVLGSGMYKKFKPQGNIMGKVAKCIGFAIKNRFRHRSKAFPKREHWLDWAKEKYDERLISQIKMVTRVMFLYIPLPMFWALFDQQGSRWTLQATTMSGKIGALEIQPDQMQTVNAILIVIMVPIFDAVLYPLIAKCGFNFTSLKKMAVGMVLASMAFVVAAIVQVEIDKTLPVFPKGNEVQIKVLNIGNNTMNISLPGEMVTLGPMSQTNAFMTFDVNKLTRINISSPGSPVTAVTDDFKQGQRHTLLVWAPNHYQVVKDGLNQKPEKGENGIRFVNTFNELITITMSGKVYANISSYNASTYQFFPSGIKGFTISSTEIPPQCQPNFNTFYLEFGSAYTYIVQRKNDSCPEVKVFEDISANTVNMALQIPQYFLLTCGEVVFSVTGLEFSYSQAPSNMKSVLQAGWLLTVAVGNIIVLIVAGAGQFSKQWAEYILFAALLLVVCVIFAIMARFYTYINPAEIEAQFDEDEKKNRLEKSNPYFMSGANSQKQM
Description: (§1) For the analysis o the interaction of the inhibitors of prolyl-specific proteases with the mammalian peptide transporters two assay systems were used. First, all test compounds were submitted to the competition assay with transgenic yeast cells to determine the dose-dependent displacement (EC50 values) of the radiolabeled tracer dipepitde from the substrate binding site. […] As the level of functional expression varies in oocytes, each test compound was compared in the same oocyte with the current elicited by 5 mM of the dipeptide glycyl-L-glutamine (Gly-Gln). Currents of test compounds are therefore given relative to that by Gly-Gln as %I Gly-Gin, expressed as residual uptake in table 10.

[2] = target: T2, PEPT2 (Homo sapiens, UniProt Q16348); assay: Competition assay with transgenic yeast cells, displacement of radiolabeled tracer dipeptide, PEPT2; assay type: binding, mammalian
T2 construct: expressed in transfected cells; host or cells: transgenic yeast cells
T2 sequence (Q16348 1-729): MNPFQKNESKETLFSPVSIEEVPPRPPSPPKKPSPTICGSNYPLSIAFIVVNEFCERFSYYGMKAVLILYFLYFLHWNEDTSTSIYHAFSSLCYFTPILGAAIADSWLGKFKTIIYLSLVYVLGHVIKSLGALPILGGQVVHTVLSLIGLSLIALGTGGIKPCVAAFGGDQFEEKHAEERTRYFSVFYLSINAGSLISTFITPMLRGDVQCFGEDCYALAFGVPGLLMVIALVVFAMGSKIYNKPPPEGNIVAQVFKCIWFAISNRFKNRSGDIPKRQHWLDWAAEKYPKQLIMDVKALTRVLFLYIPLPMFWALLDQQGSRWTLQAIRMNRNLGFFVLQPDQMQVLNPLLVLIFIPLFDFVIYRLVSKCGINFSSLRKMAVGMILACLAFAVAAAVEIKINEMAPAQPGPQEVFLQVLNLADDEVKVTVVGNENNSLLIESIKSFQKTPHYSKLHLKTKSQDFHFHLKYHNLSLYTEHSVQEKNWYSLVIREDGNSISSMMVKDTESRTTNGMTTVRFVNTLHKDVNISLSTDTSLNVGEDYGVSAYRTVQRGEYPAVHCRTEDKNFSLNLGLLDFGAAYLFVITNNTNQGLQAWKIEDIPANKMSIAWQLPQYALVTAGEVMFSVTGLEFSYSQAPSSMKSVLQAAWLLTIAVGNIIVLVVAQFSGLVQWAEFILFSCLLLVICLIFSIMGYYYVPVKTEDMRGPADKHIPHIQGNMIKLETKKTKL
Description: as §1

[3] = target: T1, PEPT1; assay: Electrophysiological analysis of transport currents in Xenopus oocytes expressing PEPT1; assay type: cell-based, mammalian; conditions: transport current in Xenopus oocytes relative to 5 mM Gly-Gln
Description: as §1

[4] = target: T2, PEPT2; assay: Electrophysiological analysis of transport currents in Xenopus oocytes expressing PEPT2; assay type: cell-based, mammalian; conditions: transport current in Xenopus oocytes relative to 5 mM Gly-Gln
Description: as §1

[5] = target: T3, purified porcine DP IV (Sus scrofa, UniProt P22411); assay: Determination of IC50-values, Gly-Pro-pNA cleavage by DP IV; assay type: biochemical
T3 sequence (P22411 whole entry): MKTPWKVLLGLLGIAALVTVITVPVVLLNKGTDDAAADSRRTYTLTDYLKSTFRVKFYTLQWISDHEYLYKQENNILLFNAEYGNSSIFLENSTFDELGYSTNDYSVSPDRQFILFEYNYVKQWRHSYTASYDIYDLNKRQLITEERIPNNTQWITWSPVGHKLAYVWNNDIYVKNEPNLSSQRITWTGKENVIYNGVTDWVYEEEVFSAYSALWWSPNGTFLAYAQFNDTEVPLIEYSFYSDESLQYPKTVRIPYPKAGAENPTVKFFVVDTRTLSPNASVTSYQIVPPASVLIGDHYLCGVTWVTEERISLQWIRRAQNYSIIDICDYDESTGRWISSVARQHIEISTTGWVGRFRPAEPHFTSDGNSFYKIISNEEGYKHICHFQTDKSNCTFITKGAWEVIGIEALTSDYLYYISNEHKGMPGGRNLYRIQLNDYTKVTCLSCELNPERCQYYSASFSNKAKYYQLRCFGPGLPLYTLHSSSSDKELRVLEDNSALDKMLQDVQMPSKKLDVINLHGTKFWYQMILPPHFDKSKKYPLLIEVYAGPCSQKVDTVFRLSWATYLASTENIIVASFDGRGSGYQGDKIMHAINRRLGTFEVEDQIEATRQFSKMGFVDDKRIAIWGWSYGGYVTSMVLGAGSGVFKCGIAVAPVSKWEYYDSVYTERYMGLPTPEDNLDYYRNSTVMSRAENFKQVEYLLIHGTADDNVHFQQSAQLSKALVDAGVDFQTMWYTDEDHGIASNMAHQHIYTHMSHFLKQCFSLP
Protocol: (§2) 100 μl inhibitor stock solution were mixed with 100 μl buffer (HEPES pH 7.6) and 50 μl substrate (Gly-Pro-pNA, final concentration 0.4 mM) and preincubated at 30° C. Reaction was started by addition of 20 μl purified porcine DP IV. Formation of the product pNA was measured at 405 nm over 10 min using the HTS 7000 Plus plate reader (Perkin Elmer) and slopes were calculated. The final inhibitor concentrations ranged between 1 mM and 30 nM.
For calculation of IC50-values GraFit 4.0.13 (Erithacus Software) was used.

[6] = target: T3, purified porcine DP IV; assay: Determination of Ki-values, Gly-Pro-pNA cleavage by DP IV; assay type: biochemical; conditions: Gly-Pro-pNA 0.05-0.4 mM
Protocol: as §2
Calculations were performed using the GraFit Software.

[7] = target: T4, plasma DP IV (Rattus norvegicus, UniProt P14740); assay: Plasma DP IV activity after intravasal and oral administration in Wistar rats; assay type: in vivo
T4 construct: The assay mixture consisted of 80 μl reagent and 20 μl plasma; from tissue; host or cells: plasma of Wistar rats
T4 sequence (P14740 37-767 limits assumed): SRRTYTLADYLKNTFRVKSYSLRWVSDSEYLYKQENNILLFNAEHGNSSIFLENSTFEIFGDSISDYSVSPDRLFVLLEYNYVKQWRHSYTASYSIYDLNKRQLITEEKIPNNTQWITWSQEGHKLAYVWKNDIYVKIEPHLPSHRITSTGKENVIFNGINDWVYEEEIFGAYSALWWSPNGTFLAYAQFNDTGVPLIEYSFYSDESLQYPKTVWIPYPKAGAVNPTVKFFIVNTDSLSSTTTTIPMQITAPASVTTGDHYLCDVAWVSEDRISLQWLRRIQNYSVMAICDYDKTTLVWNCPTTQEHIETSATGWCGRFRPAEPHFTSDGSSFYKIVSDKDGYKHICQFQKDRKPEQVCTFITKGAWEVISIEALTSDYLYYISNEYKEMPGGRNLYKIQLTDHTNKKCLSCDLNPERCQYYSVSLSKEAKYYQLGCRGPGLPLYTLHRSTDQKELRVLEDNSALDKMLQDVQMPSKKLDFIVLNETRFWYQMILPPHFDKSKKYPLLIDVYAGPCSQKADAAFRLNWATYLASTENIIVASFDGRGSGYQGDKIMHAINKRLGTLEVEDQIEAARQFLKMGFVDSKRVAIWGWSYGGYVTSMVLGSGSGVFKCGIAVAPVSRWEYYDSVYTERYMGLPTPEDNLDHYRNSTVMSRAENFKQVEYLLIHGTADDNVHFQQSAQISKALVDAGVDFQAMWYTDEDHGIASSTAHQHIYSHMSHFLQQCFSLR
Protocol: Rats with intact catheter function were given the test substances intravasal (intraarterial) or oral, respectively, in random order (N=3 Wistar rats in each group). As positive control, […]. isoleucine thiazolidine*fumarate were administered intravasal.
After overnight fasting, 100 μl samples of heparinized arterial blood were collected at −30, −5, and 0 min into ice-cooled Eppendorf tubes (see below). The test substances were dissolved freshly in 1.0 ml saline (0.154 mol/l) and were given at 0 min either oral via a feeding tube ([…], 75 mm; Fine Science Tools, Heidelberg, Germany) or intravasal. For the intravasal route, the catheter was immediately flushed with 30 μl saline and an additional 1 ml of saline was given orally via the feeding tube.
Arterial blood samples were taken thereafter at 5, 10 (only in a limited number of experiments), 20, 40, 60 and 120 min from the carotid catheter of the conscious unrestrained rats and were always given into ice cooled Eppendorf tubes (Eppendorf-Netheler-Hinz, Hamburg, Germany) filled with 10 μl 1 M citrate buffer pH 3.0 for prevention of further hydrolysis of tripeptides by plasma DP IV activity. Eppendorf tubes were centrifuged immediately (12000 rpm for 2 min, Hettich Zentrifuge EBA 12, Tuttlingen; Germany): The plasma fractions were store on ice until analysis or were deeply frozen at −20 ° C. until analysis.
Plasma DP IV activity: The assay mixture consisted of 80 μl reagent and 20 μl plasma. Kinetic measurements of the formation of the yellow product 4-nitroaniline were performed at 390 nm for 1 min at 30° C. after 2 min pre-incubation at the same temperature. The activity was expressed as arbitrary units [AU] and DP IV activity [mU/ml].
The absolute values of plasma DP IV activity, the relative change of plasma DP IV activity and the time and extent of maximal inhibition were calculated. Data presentation included the presentation of area under the curve (AUC), which was used for evaluation of extent of inhibition of plasma DP IV activity during the two hours of observation. AUC was calculated using the trapezoidal rule.
To compare relative changes of parameters under the conditions of different initial values of DP IV activity an uniform standardised mean (values) was set up at the beginning of the test (see Figures and Tables).
Statistical evaluations were performed with Microsoft Excel® 97. All variables are presented as mean and standard deviation (SD). Treatment groups were compared by Student's t-test, within-group changes by paired t-test. Two-tailed values of p<0.05 were considered significant.

[8] = displacement of radiolabeled tracer dipeptide, transgenic yeast cells, read-out: PEPT1 EC50
[9] = displacement of radiolabeled tracer dipeptide, transgenic yeast cells, read-out: PEPT2 EC50
[10] = Gly-Pro-pNA 0.4 mM, HEPES pH 7.6, 30° C., read-out: IC50

Compound	EC50 [1, 8] [µM]	EC50 [2, 9] [µM]	PEPT1 Residual uptake % IGly-Gln [3] [% IGly-Gln]	PEPT2 Residual uptake % IGly-Gln [4] [% IGly-Gln]	IC50 [5, 10] [µM]	Ki [6] [µM]	IC50 [5] [µM]	DPIV inhibition at tmax, p.o. ([7]; Wistar rats, p.o., 100 mg/kg)	inhibition at 100 mg/kg ([7]; rat, iv, read-out: DPIV inhibition at tmax, i.v.) [%]	EC50 [1] [µM]	EC50 [2] [µM]
CC[C@@H](C)[C@@H](NC(=O)[C@@H]1CCCN1C(=O)[C@@H](N)C(C)(C)C)C(=O)O [t-butyl-Gly-Pro-D-Ile] (H-[Tle]-Pro-[dI]-OH; N-terminus and C-terminus assumed)	10600 ± 64	2300 ± 1120	0	0	–	–	–	–	–	–	–
CC[C@H](C)[C@H](NC(=O)[C@@H]1CCCN1C(=O)[C@@H](N)COP(=O)(O)O)C(=O)O [Ser(P)-Pro-Ile] (H-[pS]-Pro-Ile-OH; N-terminus and C-terminus assumed)	4100 ± 1300	4900 ± 1090	0	0	12000	–	–	–	–	–	–
CC(C)[C@@H](NC(=O)[C@@H]1CCCN1C(=O)[C@@H](N)C(C)(C)C)C(=O)O [t-butyl-Gly-Pro-D-Val] (H-[Tle]-Pro-[dV]-OH; N-terminus and C-terminus assumed)	11100 ± 2800	1500 ± 240	0	0	112	26.5	–	–	–	–	–
CC[C@H](C)[C@H](NC(=O)[C@@H]1CCCN1C(=O)[C@@H](N)Cc1ccc(OP(=O)(O)O)cc1)C(=O)O [Tyr(P)-Pro-Ile] (H-[pY]-Pro-Ile-OH; N-terminus and C-terminus assumed)	–	–	0	0	–	–	1770	no inhibition	37	902 ± 58	390 ± 17
CC[C@H](C)[C@H](NC(=O)[C@@H]1CCCN1C(=O)[C@@H](N)CC1CCCCC1)C(=O)O [Cha-Pro-Ile] (H-[Cha]-Pro-Ile-OH; N-terminus and C-terminus assumed)	141 ± 9	124 ± 1	90	100	20.3	5.99	–	–	–	–	–

— patent US20030135023A1, “Peptide structures useful for competitive modulation of dipeptidyl peptidase IV catalysis” (priority 2001, published 2003)
